# Source: patent US20190110476A1, “NOVEL ISOTHIAZOLAMIDES, PROCESSES FOR THEIR PREPARATION AND THEIR USE AS FUNGICIDES” (priority 2014, published 2019)
# Marks after values point to notes of the source that are not given here.
# Assay: Measurement of LogP values by HPLC on reversed phase columns (EEC directive 79/831 Annex V.A8)
# Format: physicochemical
# Summary of the method: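 LogP measured by reversed-phase HPLC following EEC directive 79/831 Annex V.A8. Lambda-max taken from UV spectra at 200–400 nm at chromatographic peak maxima; diastereoisomer values listed separately.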
Compound,LogP,LogP [a],LogP [b]
O=C(NCCc1ccccc1)c1snc(N(Cc2ccccc2)Cc2ccccc2)c1-c1ccc(F)cc1 [I-983],5.68[a],–,–
O=C(NCc1ccc(F)c(F)c1F)c1snc(N=S2CCCC2)c1F [II-078],–,1.55^[a],–
COc1ccc(CNc2nsc(C(=O)NC3CCC(C4CCCCC4)CC3)c2Cl)cc1 (centres unmarked) [I-1347],6.25[a],–,–
CCC(C)CNC(=O)c1cc(N)ns1 (centres unmarked) [I-984],1.44[a],–,–
O=C(Nc1nsc(C(=O)NCc2ccc(Cl)cc2)c1Cl)c1ccccc1 [I-569],2.97[a],–,–
COc1ccc(CNc2nsc(C(=O)NCC3OCCc4ccccc43)c2Cl)cc1 (centres unmarked) [I-1208],3.72[a],–,–
CC(C)(C)OC(=O)Nc1nsc(C(=O)NCC2CCCCC2Cl)c1Cl (centres unmarked) [I-1571],3.53[a],–,–
O=C(c1cc(N(Cc2ccccc2)Cc2ccccc2)ns1)N(Cc1c(F)cccc1Cl)C1CC1 [I-911],5.54[a],–,–
CCc1ccccc1CN(C(=O)c1snc(N)c1Cl)C1CC1 [I-153],3.04[a],–,–
CC1(C)CC(CNC(=O)c2snc(N)c2Cl)C1 [I-243],2.49[a],–,–
O=C(NCC1CCCCC1)c1snc(N=S(Cc2ccccc2)Cc2ccccc2)c1Cl [II-084],–,4.38^[a],–
O=C(NCCc1ccccc1)c1snc(N=C(c2ccccc2)c2ccccc2)c1Cl [II-095],–,4.69^[a],–
COc1ccc(CNc2nsc(C(=O)NC3CC4CCC3(C)C4(C)C)c2Cl)cc1 (centres unmarked) [I-572],5.02[a];,–,–
O=C(NCC1CCOC1)c1snc(Cl)c1Cl (centres unmarked) [E-II-007],–,1.84^[a],–
COc1ccc(CNc2nsc(C(=O)NCC3=CCCCC3)c2Cl)cc1 [I-084],4.02[a],–,–
Nc1cc(C(=O)Nc2ccccc2)sn1 [I-855],1.41[a],–,–
Nc1nsc(C(=O)NCc2ccc(F)c(F)c2F)c1Cl [I-121],2.09[a],–,–
Nc1nsc(C(=O)NCc2ccc(F)cc2)c1Br [I-831],1.82[a],–,–
Nc1nsc(C(=O)NCC2CC=CCC2)c1Cl (centres unmarked) [I-085],2.14[a],–,–
Nc1cc(C(=O)NCc2ccc(Cl)cc2F)sn1 [I-179],1.82[a],–,–
O=C(NCc1cc(F)cc(F)c1)c1cc(N(Cc2ccccc2)Cc2ccccc2)ns1 [I-285],4.53[a],–,–
O=C(NCC1CCCCC1)c1snc(N=S2CCCC2)c1F [II-055],–,1.72^[a],–

Compound,LogP,LogP [a],LogP [b]
Nc1nsc(C(=O)NC2CCCC2c2ccccc2)c1Cl (centres unmarked) [I-288],2.71[a],–,–
COc1ccc(CNc2nsc(C(=O)NC3(c4ccccc4Cl)CC3)c2Cl)cc1 [I-1327],4.24[a],–,–
O=C(NC(CCc1ccccc1)C1CCC1)c1snc(Cl)c1Cl (centres unmarked) [E-II-029],–,5.04,4.91
COc1c(N)nsc1C(=O)NCC1CCCC1 [I-736],1.87[a],–,–
CC1(CNC(=O)c2snc(N)c2Cl)CCCCC1 [I-086],2.84[a],–,–
Cc1c(N)nsc1C(=O)NCc1ccc(C#N)cc1F [I-150],1.35[a],–,–
Nc1nsc(C(=S)NCC2CCCCC2)c1Cl [I-913],3.37[a],–,–
Cc1ccc(F)c(CN(C(=O)c2cc(N(Cc3ccccc3)Cc3ccccc3)ns2)C2CC2)c1 [I-990],5.56[a],–,–
O=C(NCC1CCOCC1)c1snc(Cl)c1Cl [E-II-004],–,2.05^[a],–
COc1ccc(CNc2nsc(C(=O)NC(C)c3ccc(C(C)C)cc3)c2Cl)cc1 (centres unmarked) [I-1207],4.69[a],–,–
Nc1nsc(C(=O)NCC2CCCCC2Cl)c1Cl (centres unmarked) [I-821],2.44[a],–,–
Nc1nsc(C(=O)NCc2c(F)cccc2Cl)c1Cl [I-132],2.06[a],–,–
Cc1c(N)nsc1C(=O)NCc1ccc(F)cc1F [I-041],1.64[a],–,–
CC(NC(=O)c1snc(N)c1Cl)C1CCCCC1 (centres unmarked) [I-1569],2.84[a],–,–
CC(NC(=O)c1snc(N(Cc2ccccc2)Cc2ccccc2)c1-c1ccc(F)cc1)C1CCCCC1 (centres unmarked) [I-317],6.63[a],–,–
Nc1nsc(C(=O)NCc2cc(F)ccc2F)c1Cl [I-015],1.88[a],–,–
CCC(C)C(C)N(C(=O)c1snc(NCc2ccc(OC)cc2)c1Cl)C1CC1 (centres unmarked) [I-894],4.85[a],–,–
COc1ccc(CNc2nsc(C(=O)NCc3ccccc3F)c2Cl)cc1 [I-043],3.46[a],–,–
Nc1nsc(C(=O)NC2CC23CCCCC3)c1Cl (centres unmarked) [I-1549],2.54[a],–,–
COc1ccc(CNc2nsc(C(=O)N(C3CC3)C(C)c3ccccc3C(F)(F)F)c2Cl)cc1 (centres unmarked) [I-949],4.83[a],–,–
Nc1nsc(C(=O)N(Cc2ccc(Cl)cc2Cl)C2CCC2)c1Cl [I-211],3.85[a],–,–
C[C@H](NC(=O)c1snc(NC(=O)c2ccccc2)c1Cl)C1CCCCC1 [I-091],3.64[a],–,–

Compound,LogP,LogP [a],LogP [b]
O=C(c1cc(N(Cc2ccccc2)Cc2ccccc2)ns1)N(Cc1cc(Cl)cc(C(F)(F)F)c1)C1CC1 [I-943],6.16[a],–,–
Nc1nsc(C(=O)NCc2cccc(I)c2)c1Cl [I-716],2.51[a],–,–
COc1ccc(CNc2nsc(C(=O)N(Cc3ccc(C)cc3C)C3CC3)c2Cl)cc1 [I-892],4.80[a],–,–
O=C(NCC1CCCCC1)c1snc(NCCCO)c1Cl [I-676],2.46[a],–,–
COc1cc(F)ccc1CNC(=O)c1snc(NC(=O)C(F)(F)F)c1Cl [I-819],2.72[a],–,–
Nc1nsc(C(=O)N2CCCc3cc(Cl)ccc32)c1Cl [II-026],–,2.66,2.60
COc1c(N)nsc1C(=O)NCc1ccccc1F [I-733],1.64[a],–,–
Nc1nsc(C(=S)NCc2ccc(Cl)cc2)c1Cl [I-1026],3.12[a],–,–
"Cc1c(N)nsc1C(=O)NCC1CCCC1O (single isomer, unassigned) [I-706]",0.79[a],–,–
CN1C2CCC1CC(NC(=O)c1snc(N)c1Cl)C2 (centres unmarked) [I-607],−0.20[c],–,–
Nc1nsc(C(=O)NCc2cc(F)c(F)cc2F)c1Cl [I-677],2.03[a],–,–
Nc1cc(C(=O)N(Cc2cc(Cl)ccc2F)C2CC2)sn1 [I-999],2.49[a],–,–
COc1ccc(CNc2cc(C(=O)OC(C)C)sn2)cc1 [E-VII-070],–,3.63^[a],–
COc1ccc(CNc2nsc(C(=O)NC(C)c3ccc(Cl)nc3)c2Cl)cc1 (centres unmarked) [I-1343],3.17[a],–,–
O=C(NC1CCCC2CCCCC21)c1snc(Cl)c1Cl (centres unmarked) [E-II-026],–,5.43^[a],–
CCCCCn1cc(CNC(=O)c2snc(NCc3ccc(OC)cc3)c2Cl)c(C)n1 [I-1259],3.57[a],–,–
COc1ccc(CNc2nsc(C(=O)NCc3ccc(OC)cn3)c2Cl)cc1 [I-1318],2.45[a],–,–
COc1ccc(CNc2nsc(C(=O)NCc3ccc(C)o3)c2Cl)cc1 [I-674],3.27[a],–,–
CC(C)CNC(=O)c1cc(N)ns1 [I-985],1.07[a],–,–
CCCS(CC)=Nc1nsc(C(=O)NCc2ccc(F)c(F)c2F)c1F (centres unmarked) [II-104],–,1.96^[a],–
COc1ccc(CNc2nsc(C(=O)N3CCc4ccccc43)c2Cl)cc1 [II-069],–,3.83,3.76
Nc1nsc(C(=O)NCC2CC=C(F)CC2)c1F (centres unmarked) [I-1296],1.69[a],–,–

# The remaining lines, values ahead:
LogP,LogP [a],LogP [b],Compound
4.44[a],–,–,COc1ccc(CNc2nsc(C(=O)NC(C)(C)c3cccc(C(F)(F)F)c3)c2Cl)cc1 [I-1232]
1.54[a],–,–,COc1ccc(CNc2nsc(C(=O)NC(C)c3ccncc3)c2Cl)cc1 (centres unmarked) [I-1189]
4.18[a],–,–,COc1ccc(CNc2nsc(C(=O)NCc3ccc(F)cc3C(F)(F)F)c2Cl)cc1 [I-220]
4.90[a],–,–,COc1ccc(CNc2nsc(C(=O)N(Cc3cc(C)cc(C)c3)C3CC3)c2Cl)cc1 [I-872]
1.89[a],–,–,COc1ccc(CNc2nsc(C(=O)NCc3cncc(OC)c3)c2Cl)cc1 [I-1342]
6.79[a],–,–,CC1(C)CC1N(Cc1ccc(Cl)cc1Cl)C(=O)c1cc(N(Cc2ccccc2)Cc2ccccc2)ns1 (centres unmarked) [I-942]
4.40[a],–,–,COc1ccc(CNc2nsc(C(=O)NC3(c4ccccc4Br)CC3)c2Cl)cc1 [I-1322]
–,3.71^[a],–,O=C(NCC1CCCOC1)c1snc(N=C(c2ccccc2)c2ccccc2)c1Cl (centres unmarked) [II-007]
4.21[a],–,–,COc1ccc(CN(C)c2nsc(C(=O)NCc3ccccc3F)c2Cl)cc1 [I-088]
–,1.96^[a],–,O=C(NCc1cc(F)c(F)c(F)c1)c1snc(N=S2CCCC2)c1Cl [II-045]
4.41[a],–,–,COc1ccc(CNc2nsc(C(=O)NC3CCCC3c3ccccc3)c2Cl)cc1 (centres unmarked) [I-269]
1.07[a],–,–,Nc1nsc(C(=O)NCC2CCCOC2)c1Cl (centres unmarked) [I-010]
–,2.78,2.71,Nc1nsc(C(=O)N2CCCc3ccc(C(F)(F)F)cc32)c1Cl [II-018]
2.39[a],–,–,Nc1nsc(C(=O)N(c2ccc(F)cc2F)C2CC2)c1Cl [I-958]
3.56[a],–,–,C#CCNc1nsc(C(=O)N[C@@H](C)C2CCCCC2)c1Cl [I-062]
1.74[a],–,–,Cc1c(N)nsc1C(=O)NCc1ccccc1C(F)F [I-157]
2.14[a],–,–,CC1CCCCC1NC(=O)c1snc(N)c1I (centres unmarked) [I-1564]
4.01[a],–,–,COc1ccc(CNc2nsc(C(=O)NCc3ccc(Br)cc3)c2Cl)cc1 [I-366]
–,3.68^[a],–,COc1ccc(CNc2nsc(C(=O)N3CCc4ccccc4C3)c2Cl)cc1 [II-064]
4.71[a],–,–,O=C(NCc1cccc(Cl)c1)c1cc(N(Cc2ccccc2)Cc2ccccc2)ns1 [I-283]
5.88[a],–,–,O=C(NCC1CCCCC1)c1snc(N(Cc2ccccc2)Cc2ccccc2)c1C(F)F [I-394]
5.51[a],–,–,COc1ccc(CN(C)c2nsc(C(=O)N[C@@H](C)C3CCCCC3)c2Cl)cc1 [I-087]
3.75[a],–,–,C[C@H](NC(=O)c1snc(NC2CC2)c1Cl)C1CCCCC1 [I-061]
3.21[a],–,–,COc1ccc(CNc2nsc(C(=O)NCc3cnn(CC(C)C)c3C)c2Cl)cc1 [I-1262]
2.54[a],–,–,C#CCNc1nsc(C(=O)NCc2ccccc2F)c1Cl [I-058]
2.11[a],–,–,Nc1nsc(C(=O)NCCc2ccccc2F)c1Cl [I-972]
–,1.94^[a],–,COc1ccc(CNc2nsc(C(N)=O)c2Cl)cc1 [II-106]
3.79[a],–,–,COc1ccc(CNc2nsc(C(=O)NC(C)c3ccccc3F)c2Cl)cc1 (centres unmarked) [I-1212]
–,4.37,4.25,COc1ccc(CNc2nsc(C(=O)N3CCCc4ccc(C(F)(F)F)cc43)c2Cl)cc1 [II-062]
3.04[a],–,–,Cc1ccc(C)c(CN(C(=O)c2snc(N)c2Cl)C2CC2)c1 [I-119]
